Experimental data as given in patent publication US11391739B2, “Compositions and methods for treating multiple myeloma” (DANA-FARBER CANCER INSTITUTE, INC., priority 2014, dated 2022).

How the values were obtained:
Type in all cases: cell-based, human
MM1S-luc cells = assay: Transwell migration assay of MM1S-luc cells
Procedure: For cell migration assays, the top chamber of transwell plates ([…], Corning Costar) was seeded with 2×10^5 MM1S-luc cells, and the bottom chamber was seeded with either medium (0.1% FBS) alone, BMEC-60 cells, BMEC-60 cell-conditioned medium, or plain medium containing CyPA and/or CD147. After 12 hrs of incubation, MM1S-luc cells that had migrated to the bottom chamber were collected and quantified by Xenogen Imaging. Migration of RPMI, U266, CLL, LPL, or primary tumor cells was evaluated by counting the number of unlabeled cells in the lower chamber. Each experiment was done in triplicate and repeated twice. Recombinant HPLC-purified eCyPA was purchased from BioMart Inc. and eCyPB (PPIB) human recombinant protein was purchased from Abnova. In most instances, 50 ng/ml of eCyPA or eCyPB diluted in serum-free RPMI medium was used. CM was collected from confluent cultures of BMEC-60 cells incubated for 48 hours. When needed, the CM was treated with 100 μ/ml proteinase K (19133, Qiagen) for 2 hrs and then deactivated for 15 min at 70° C. Anti-CD147 (UM-8D6) antibody and monoclonal mouse IgG1 (MOPC31C) were obtained from Ancell; anti-CXCR4 (MAB171) was from R&D systems. Migration data were normalized using the data obtained with medium alone. Results are means.±SD for triplicate assays.

H929 and MM1S cells [1] = assay: Proliferation of MM cells ([3H]TdR incorporation)
Procedure: Cell proliferation was evaluated by [^3H]TdR incorporation as described in Mani et al., Cancer Res. 69: 7577-7586 (2009). When proliferation of MM cells was determined in the presence of HS5 or BMEC-60 cells, the latter were previously gamma-irradiated (10,000 rads) and dispensed into 96-well plates. Then, MM1S and H929 cells were co-cultured with either BMEC-60 cells, CM alone, CyPA, or CyPB for 72 hrs. Viability of MM1s-Luc cells were co-cultured with BMEC-60 cells and then treated with drugs as described was assessed, using the tumor cell-specific in vitro bioluminescence imaging (SS-BLI).

[2] = test system: H929, OPM2, RPMI and primary MM cells; assay: Transwell migration assay of other MM cell lines and primary MM cells; conditions: 50 ng/ml recombinant protein
Procedure: FIG. 12. (FIG. 12A) CyPA immunostains in two different NBM, kidney, liver, and lymph node biopsies from healthy subjects. (FIG. 12B) Serum levels of eCyPA in 10 BM aspirates from MGUS and MM patients. (FIG. 12C) Transwell migration assay of MM1S-luc cells incubated in the absence of serum (Medium) or BM serum from two different MM patients with low (PT #4) and high (PT #12) levels of eCyPA (same as FIG. 4I). Migration data was normalized based on data of medium alone. (FIG. 12D) Transwell migration assay of H929, OPM2 and RPMI cells incubated with medium alone or in the presence of 50 ng/ml of recombinant eCyPA. (FIG. 12E) Transwell migration assay of two MM primary tumors (MMPT #1 and MMPT #2) incubated with medium alone or 50 ng/ml of recombinant eCyPA or BMEC-60 cells.
(§1) For cell migration assays, the top chamber of transwell plates ([…], Corning Costar) was seeded with 2×10^5 MM1S-luc cells, and the bottom chamber was seeded with either medium (0.1% FBS) alone, BMEC-60 cells, BMEC-60 cell-conditioned medium, or plain medium containing CyPA and/or CD147. After 12 hrs of incubation, MM1S-luc cells that had migrated to the bottom chamber were collected and quantified by Xenogen Imaging. Migration of RPMI, U266, CLL, LPL, or primary tumor cells was evaluated by counting the number of unlabeled cells in the lower chamber. […]

H929 and MM1S cells [3] = assay: Immunoblot analysis of total protein extracts from MM cells
Procedure: Total protein samples were prepared from non-attached H929 and MM1S cells grown in CM from cultures of BMEC-60 or BMEC-1 cells attached for 72 hr. In some experiments, the cells were co-cultured with BMEC-60 cells using transwell chambers (Corning Costar, 0.45 µm pore diameter). Immunoblotting was performed as described in Takada et al., Sci. Transl. Med. 4, 148ra117 (2012). When MM1S and H929 cells were treated with eCyPA or CD147 Ab, they were first incubated with eCyPA or CD147 Ab for 5 hrs in serum-free medium. Then 0.5% serum was added, and incubation was resumed for another 72 hrs before performing protein preparation. Anti-human primary antibodies included: BCL9 (2D4, Abnova), CyPA (ERPR7511, Abcam), CD147 (#13287, Cell Signaling), pSTAT3 (#9131, Cell Signaling), pERK (#4370, Cell Signaling), PARP (#9542, Cell Signaling), pAKT (#9271, Cell Signaling), Active-β-catenin (05-665, Millipore), Factor VIII (A0082, DAKO), MMP-9 (MAB911, R&D), CyPB (MAB5410, R&D), and horseradish peroxidase (HRP)-conjugated actin (C-11, Santa Cruz). Actin Ab was used as a loading control. Secondary antibodies included: anti-rabbit IgG (HRP)-conjugated (W402b, Promega), and anti-mouse IgG (HRP)-conjugated (W401b, Promega). Protein concentrations were measured in triplicate by Bradford assay (BioRad). Optimal antibody concentrations were used according to the manufacturer's recomendations.

CLL and LPL cells = assay: Transwell migration assay of CLL and LPL cells; conditions: 50 ng/ml recombinant eCyPA
Source text: FIG. 16. (FIG. 16A) Representative immunostains (top, n=10) and flow cytometric (bottom, n=6) analysis of CD147 expression in BM samples from CLL patients. (FIG. 16B) Representative immunostains (top, n=10) and flow cytometric (bottom, n=6) analysis of CD147 expression in BM samples from LPL patients. (FIG. 16C) Flow cytometry of CD147 (red line) and control isotype (black line) expression in one CLL cell line (HG3) and one primary tumor patient cells (CLLPT #1). (FIG. 16D) Flow cytometry of CD147 (red line) and control isotype (black line) expression in one LPL cell line (BCWM.1) and one primary tumor patient cells (LPLPT #1). […] Migration of primary CLL and LPL tumor patient cells was evaluated in four different samples for each tumor type. […] Unlabeled cell lines and primary tumors were used, and migration was evaluated by counting cells in the bottom chamber. […]
as §1, with “Imaging.” for “Imaging. Migration of RPMI, U266, CLL, LPL, or primary tumor cells was evaluated by counting the number of unlabeled cells in the lower chamber.”

Row | Substance | migration of MM1S-luc cells, CyPB compared with CyPA (MM1S-luc cells; 50 ng/ml each) | proliferation of MM cells (H929 and MM1S cells [1]; tested at much higher concentrations than those in BM serum of MM patients) | concentration giving maximal migration response (MM1S-luc cells; MM1S-luc cells) [ng/mL] | lowest concentration inducing significant migration (MM1S-luc cells; MM1S-luc cells) [ng/mL] | migration of MM cells incubated with BMEC-1 transduced with CyPA-shRNAs (MM1S-luc cells; addition of 50 ng/ml recombinant eCyPA) | migration of MM1S-luc cells (MM1S-luc cells; purified recombinant protein, time- and concentration-dependent) | migration of other MM cell lines (H929, OPM2, RPMI) [2] | migration of primary MM cells [2] | signaling pathways (Wnt/β-catenin, STAT3, AKT, ERK) in MM cells (H929 and MM1S cells [3]; 50 ng/ml eCyPA vs without) | higher-glycosylated form of CD147 in MM cells (H929 and MM1S cells [3]; CyPA-treated) | expression of matrix metalloprotease 9 (MMP-9) (H929 and MM1S cells [3]; cells treated with eCyPA) | CD147 expression in MM cells (H929 and MM1S cells [3]; concentration-dependent and time-dependent) | proliferation of H929 and MM1S cells (H929 and MM1S cells [1]; concentration-dependent) | migration of CLL cells (CLL and LPL cells) | migration of LPL cells (CLL and LPL cells)
1 | CyPB: eCyPB (PPIB) human recombinant protein purchased from Abnova | Major differences were likewise not observed | induces proliferation | – | – | – | – | – | – | – | – | – | – | – | – | –
2 | eCyPA: Recombinant HPLC-purified eCyPA (extracellular cyclophilin A) purchased from BioMart Inc. | – | – | 50 | 6 | restored migration | promoted migration | induced migration | induced migration | activation of several signaling pathways | increased | increased | dramatically increased | enhanced | enhanced migration | enhanced migration
